# Article PMC5592152 (Bioorganic & medicinal chemistry letters, 2017)
# How the values were obtained:
# Assay in all cases: electrophysiological experiments, voltage clamp of oocytes
# Format in all cases: cell-based
# [1] = target: α7 nAChR (Homo sapiens, UniProt P36544)
# [2] = target: α3β4 nAChR (Homo sapiens, UniProt P30926+P32297)
# [3] = target: α4β2 nAChR (Homo sapiens, UniProt P17787+P43681)
# Chain of α4β2 nAChR (P43681 29-627 limits assumed): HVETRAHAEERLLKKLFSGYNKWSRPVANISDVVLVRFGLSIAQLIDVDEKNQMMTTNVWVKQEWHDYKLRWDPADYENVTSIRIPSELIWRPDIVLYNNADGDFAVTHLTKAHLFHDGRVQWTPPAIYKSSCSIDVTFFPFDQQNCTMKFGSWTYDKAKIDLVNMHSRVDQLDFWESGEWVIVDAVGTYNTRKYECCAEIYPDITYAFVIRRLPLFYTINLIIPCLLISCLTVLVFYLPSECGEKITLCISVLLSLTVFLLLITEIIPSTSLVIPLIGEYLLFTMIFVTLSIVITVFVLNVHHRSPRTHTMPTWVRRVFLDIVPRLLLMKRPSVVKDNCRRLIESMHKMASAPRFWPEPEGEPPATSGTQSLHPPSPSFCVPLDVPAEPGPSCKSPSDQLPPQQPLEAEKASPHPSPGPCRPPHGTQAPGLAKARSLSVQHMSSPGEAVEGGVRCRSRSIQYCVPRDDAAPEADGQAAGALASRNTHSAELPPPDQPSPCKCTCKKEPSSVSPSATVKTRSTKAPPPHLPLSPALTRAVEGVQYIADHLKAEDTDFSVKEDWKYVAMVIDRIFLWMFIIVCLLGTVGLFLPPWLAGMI
# Chain of α4β2 nAChR (P17787 26-502): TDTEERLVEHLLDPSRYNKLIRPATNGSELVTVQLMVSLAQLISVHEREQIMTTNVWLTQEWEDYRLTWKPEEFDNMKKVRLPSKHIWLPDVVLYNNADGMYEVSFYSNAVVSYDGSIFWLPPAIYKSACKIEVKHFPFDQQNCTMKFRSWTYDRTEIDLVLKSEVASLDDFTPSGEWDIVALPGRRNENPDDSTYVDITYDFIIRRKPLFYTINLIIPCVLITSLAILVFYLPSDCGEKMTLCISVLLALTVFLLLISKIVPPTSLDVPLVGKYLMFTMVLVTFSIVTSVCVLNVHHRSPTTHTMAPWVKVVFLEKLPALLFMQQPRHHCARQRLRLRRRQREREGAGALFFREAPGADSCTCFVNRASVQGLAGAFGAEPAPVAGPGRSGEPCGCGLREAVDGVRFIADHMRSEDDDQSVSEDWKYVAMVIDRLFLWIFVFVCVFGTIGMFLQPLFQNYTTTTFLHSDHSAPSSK
# Chain of α7 nAChR (P36544 23-502): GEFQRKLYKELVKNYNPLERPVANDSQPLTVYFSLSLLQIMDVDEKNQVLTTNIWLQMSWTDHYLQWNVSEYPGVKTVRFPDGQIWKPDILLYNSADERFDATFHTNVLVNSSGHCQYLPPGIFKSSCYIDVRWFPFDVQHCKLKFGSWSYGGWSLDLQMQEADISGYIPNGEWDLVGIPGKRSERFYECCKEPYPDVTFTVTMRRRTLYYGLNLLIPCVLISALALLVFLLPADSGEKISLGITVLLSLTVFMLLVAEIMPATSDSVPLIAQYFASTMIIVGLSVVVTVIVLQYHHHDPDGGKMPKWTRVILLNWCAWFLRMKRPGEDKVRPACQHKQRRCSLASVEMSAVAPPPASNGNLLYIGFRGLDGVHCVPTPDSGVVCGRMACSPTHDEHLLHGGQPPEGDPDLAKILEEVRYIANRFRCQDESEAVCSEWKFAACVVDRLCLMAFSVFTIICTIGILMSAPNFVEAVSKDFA
# Chain of α3β4 nAChR (P32297 32-505): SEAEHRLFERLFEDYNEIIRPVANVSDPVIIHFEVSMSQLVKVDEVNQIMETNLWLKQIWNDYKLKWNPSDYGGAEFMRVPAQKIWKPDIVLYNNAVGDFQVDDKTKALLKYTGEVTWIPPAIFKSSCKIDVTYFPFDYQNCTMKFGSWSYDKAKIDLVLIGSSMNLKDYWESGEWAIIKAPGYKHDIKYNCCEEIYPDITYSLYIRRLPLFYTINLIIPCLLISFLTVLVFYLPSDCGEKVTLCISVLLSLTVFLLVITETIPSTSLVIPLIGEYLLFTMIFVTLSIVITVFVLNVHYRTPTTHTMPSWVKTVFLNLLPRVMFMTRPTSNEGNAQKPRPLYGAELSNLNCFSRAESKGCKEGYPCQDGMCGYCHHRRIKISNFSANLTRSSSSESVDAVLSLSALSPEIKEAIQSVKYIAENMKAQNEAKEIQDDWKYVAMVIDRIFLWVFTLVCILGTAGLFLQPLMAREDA
# Chain of α3β4 nAChR (P30926 22-498): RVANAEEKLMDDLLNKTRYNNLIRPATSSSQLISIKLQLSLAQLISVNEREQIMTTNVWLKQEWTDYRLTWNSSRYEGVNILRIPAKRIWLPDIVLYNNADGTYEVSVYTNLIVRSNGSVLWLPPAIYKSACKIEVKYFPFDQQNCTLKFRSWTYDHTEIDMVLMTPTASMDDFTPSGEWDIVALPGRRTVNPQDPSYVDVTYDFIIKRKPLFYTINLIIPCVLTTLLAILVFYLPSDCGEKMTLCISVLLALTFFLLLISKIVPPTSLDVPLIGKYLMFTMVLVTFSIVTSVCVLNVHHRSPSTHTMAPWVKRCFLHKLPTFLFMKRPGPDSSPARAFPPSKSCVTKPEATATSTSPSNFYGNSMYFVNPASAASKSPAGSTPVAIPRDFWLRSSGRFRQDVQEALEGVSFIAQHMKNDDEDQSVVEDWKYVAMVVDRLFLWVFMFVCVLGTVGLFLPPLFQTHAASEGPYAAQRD
smiles,measurement,setting,value
CN1CCC=C(c2cnc(F)c(-c3ccccc3)c2)C1 [Compound 3a],agonist activity,"[1]; 60 μM for α7, normalized to control ACh response",no significant agonist activity
same,antagonist activity,"[1]; compound at 100 μM, with ACh 60 μM",no significant antagonist activity
same,agonist activity,"[2]; 100 μM for α3β4, normalized to control ACh response",no significant agonist activity
same,antagonist activity,"[2]; compound at 100 μM, with ACh 100 μM",significantly antagonized
same,agonist activity,"[3]; 30 μM for α4β2, normalized to control ACh response",no significant agonist activity
same,antagonist activity,"[3]; compound at 100 μM, with ACh 30 μM",no significant antagonist activity
